For data set [1], the system named is P. falciparum. Kind of data set: In vitro toxicity against P. falciparum in culture (radiolabelled hypoxanthine incorporation / lactate dehydrogenase assay). It is filed as cell-based, Plasmodium falciparum, FCQ27. The note with it: for IC50: Plasmodium falciparum; for toxicity against P. falciparum, in words: statement in the transport and metabolism study. How it is done: P. falciparum, FCQ27, was maintained in culture using the techniques described by Trager & Jensen (W. Traqer and J. B. Jensen, Science, 193 673-675 (1976)). Cultures containing 2% hematocrit suspensions of parasitized human type O^+ erythrocytes in RPMI 1640 medium, supplemented with 25 mM HEPES-KOH, pH 7.2, 25 mM NaHCO3 and 10% human type O^+ serum (v/v) are maintained in modular incubator chambers at 37° C. in a gas mixture of 5% O2, 5% CO2 and 90% N2. The isolate of P. falciparum used in these experiments was FCQ27, routinely maintained in synchronized or asynchronous in vitro cultures at low hematocrit.
The potential toxicity of nucleoside analogues against P. falciparum in culture was tested in microtitre plates over the range of drug concentrations for 24 hours. The procedures for monitoring parasite viability is well established (A. M. Gero, H. V. Scott, W. J. O'Sullivan and R. I. Christopherson, Mol. Biochem. Parasitol. 34, 87-89 (1989)) and is based on radiolabelled hypoxanthine or isoleucine incorporation. The incorporation of [G-^3 H]hypoxanthine into the nucleic acids of P. falciparum was used to assess the viability of the parasite in vitro. Microculture plates were prepared with each well containing 225 μl of a 2% hematocrit culture of asynchronous parasited erythrocytes (1% parasitized cells). Each plate, containing varying concentrations of the drug to be studied (up to 200 μM final concentration for initial screen), was incubated for 24 h at 37° C. in a gas mixture of 5% O2, 5% CO2 and 90% N2, at which point [G-^3 H] hypoxanthine was added to each well and the incubation continued under identical conditions for a further 18-20 h. The control infected cells (i.e. without drug), routinely reached a parasitemia of 6-8% before harvesting. Expediency was aided by 96-well plate counter using lactate dehydrogenase for the drug susceptibility assay (L. K. Basco, F. Marguet, M. T. Makler and J. Lebbras, Exp. Parasitol. 80, 260-271 (1995); M. T. Makler and D. J. Hinrichs; Am. J. Trop. Med. Hyg. 48, 205-210 (1993)). This assay gave the identical results to the hypoxanthine technique. In addition, for each experiment, microscopic counting of Giemsa stained thin slides was used as a control.
The biological screen involved evaluation of the compounds against the protozoan P. falciparum in in vitro culture. The range of drug concentrations was used independently by two assays. One, radiolabelled hypoxanthine incorporation into the nucleic acid of P. falciparum, and the other, more expedient assay, a 96-well plate susceptibility assay using lactate dehydrogenase. Both assays gave identical results. In addition, microscopic counting of Giemsa stained thin slides was used as a control. Examples of experimental curves are attached as Appendix 2. The biological tests were done at several concentrations. The highest concentration was 200 μM, the compounds were considered active at concentrations less than 40 μM.

The subject of data set [2] is P. falciparum infected erythrocytes (trophozoites). It is filed as in vitro ADME, human erythrocytes infected with Plasmodium falciparum. How it is done:
(§1) The metabolism of the L-nucleoside conjugates was studied by HPLC analysis. The primary aim was to determine their ability to be catabolized by parasite purine salvage enzymes. Some effect on the purine metabolic pools was also observed.
(§2) For each HPLC determination 200 μL of packed cells of 80-90% trophozoite infected cells were used. These were isolated from in vitro cultures by synchronization of the parasites in in vitro cultures using sterile D-sorbitol (L. Lambros and J. P. Vanderberg, Parasitol. 65, 418-420 (1979)) followed by separation of the trophozoites from non infected erythrocytes by Percoll gradients as described previously (A. M. Gero, H. V. Scott, W. J. O'Sullivan and R. I. Christopherson, Mol. Biochem. Parasitol. 34, 87-89 (1989)). Trophozoites were incubated at 37° C. for 2 hours with each compound to be tested. Compounds were incubated with both whole infected cells as whole and lyzed uninfected normal erythrocytes to determine:
a) entry to the cell (whether they were transported);
Drug incubation was terminated by centrifugation through silicon oil using the method of Upston and Gero (J. M. Upston and A. M. Gero, Biochem. Biophys. Acta. 1236, 249-258 (1995)). This procedure separated intact trophozoites from extracellular non-transported drug solution.
(§3) The metabolism of nucleosides with potential chemotherapeutic activity was assessed by the analysis of cytoplasmic samples by reverse phase ion-pair high performance liquid chromatography (R. S. Toguzov, Y. V. Tikhonov, A. M. Pimenov, V. Prokudin, Journal of Chromatography, I. Biomedical Appl. 434, 447-453 (1988)). Nucleotides, nucleosides and bases were separated by this HPLC method.
It has been established that transport and uptake in parasite invaded cells is different from that of normal blood erythrocytes (A. M. Gero & A. M. Wood, In: Pyrine & Pyrimidine Methabolism in Man VII, Part A. (R. A. Harkness et al., Eds) Plenum Press, NY, 169-172 (1991)). Invasion by the malaria parasite comprises the cell membrane, allowing penetration of unnatural substances of various size and shape, whereas normal cells are very selective in uptake. It was shown that L-nucleosides and their derivatives easily penetrate invaded cells, while they have a very slow rate of uptake into normal cells, if they enter at all. In order to obtain preliminary data on transport, uptake and metabolism, the HPLC method was used to analyze the following 10 Lipitek compounds: L-101, L-103, L-109, L-111, L-117, L-133, L-138, GCl 1007, GCl 1027, GCl 1069.
(§4) These compounds were chosen for the identification of possible metabolites. In this experiment the compounds were incubated with both whole infected cells, and with whole and lysed uninfected cells, followed by the separation of unreacted compound and HPLC analysis.

Data set [3] has as its system P. falciparum strain D6 (chloroquin non-resistant). Kind of data set: U.S. Army Antimalarial Test Program in vitro screen, strain D6. The following applies: 15 dimers, D6 and W2 stated together. The data set is classed as cell-based, Plasmodium falciparum. From the text:
(§5) Fifteen L-nucleoside dimers (L-101, L-103, L-103A, L-107, L-110, L-111, L-112, L-114, L-117, L-120, L-122, L-124, L-125, L-133 & L-138) from Lipitek's library were submitted for in vitro screen to the U.S. Army Antimalarial Test Program (for the structures of the compounds, see FIG. 7). The compounds have been tested for their activity against two P. falciparum strains: D6 (chloroquin non-resistant) and W2 (chloroquin resistant).

Data set [4] has as its system P. falciparum infected erythrocytes (trophozoites). It is filed as in vitro ADME, human erythrocytes infected with Plasmodium falciparum. How it is done:
as §1, §2
b) the metabolic effect within the cell (was the compound metabolized);
as §3, §4
This is another data set of the same source.

Data set [5] relates to P. falciparum strain W2 (chloroquin resistant). Kind of data set: U.S. Army Antimalarial Test Program in vitro screen, strain W2. The data set is classed as cell-based, Plasmodium falciparum. The following applies: 15 dimers, D6 and W2 stated together.
Source text: as §5

Where [6] appears, read: 24 h, Table 1, 24 h drug exposure, up to 200 μM, read-out: IC50.
Where [7] appears, read: Table 2, FUdR linkage position 5', read-out: IC50.
Setting [8] is: Table 4, Phosphate "bridge" O=P--O, read-out: IC50.
The mark [9] stands for this setting: Table 3, α-L configuration of the L-nucleoside, read-out: IC50.
Setting [10] is: Table 3, β-L configuration of the L-nucleoside, read-out: IC50.

SMILES strings stand for the structures. Entries after “also recorded” stand apart in the source; their conditions may differ. Like-named read-outs stand apart in the source and are kept apart here.

Nine molecules from patent US6242428A, “Nucleoside analogs and uses in treating Plasmodium falciparum infection” (Unisearch Limited, priority 1998, dated 2001) can be followed below.

For `O=c1[nH]c(=O)n([C@H]2C[C@@H](O)[C@H](CO)O2)cc1F` [GCI 1027, 2'-deoxy-α-L-5-fluorouridine], the “In vitro activity against P. falciparum, in words” value in data set [1] was “no activity”. Further, the IC50 is greater than 200 µM in data set [1] (setting [6]) and greater than 200 µM in data set [1] (Erythrocyte, 24 h, Table 6, SATE derivatives of FUdR, read-out: ID50 (the source's name)). For the same molecule, in data set [1], the “toxicity against P. falciparum, in words” value was “toxic against P. falciparum”. In data set [2], the “entry to the infected cell” value is “entered the infected cells”.
Consider `Nc1ncnc2c1ncn2[C@H]1C[C@@H](O)[C@H](CO)O1` [GCI 1069, α-L-dA], for which the IC50 in data set [1] (setting [6]) was greater than 200 µM. In addition, the “toxicity against P. falciparum, in words” value in data set [1] is recorded as “toxic against P. falciparum”. Moreover, the “entry to the infected cell” value in data set [2] was “entered the infected cells”.
As for `O=c1[nH]c(=O)n([C@H]2C[C@H](OP(=O)(O)OC[C@H]3O[C@@H](n4cc(F)c(=O)[nH]c4=O)C[C@@H]3O)[C@@H](CO)O2)cc1F` [L-101, [β-D]2 -FUdR], the “activity ranking in words, strain D6” value in data set [3] is listed as “most active”. For the same molecule, the “metabolism by the infected cells” value in data set [4] was “metabolized by the infected cells”. The “activity ranking in words, strain W2” value in data set [5] is reported as “most active”. Further, in data set [1], the “In vitro activity against P. falciparum, in words” value was “most active”. The IC50 in data set [1] (setting [6]), in data set [1] (setting [7]) and in data set [1] (setting [8]) was 15 µM in each case. Moreover, the “toxicity against P. falciparum, in words” value in data set [1] is “toxic against P. falciparum”. Also, the “entry to the infected cell” value in data set [2] is listed as “entered the infected cells”.
As to `O=c1[nH]c(=O)n([C@H]2C[C@@H](OP(=O)(O)OC[C@H]3O[C@@H](n4cc(F)c(=O)[nH]c4=O)C[C@@H]3O)[C@H](CO)O2)cc1F` [L-103], the IC50 in data set [1] (setting [6]), in data set [1] (setting [7]), in data set [1] (setting [9]) and in data set [1] (setting [8]) was 20 µM in each case. Further, the “toxicity against P. falciparum, in words” value in data set [1] is reported as “toxic against P. falciparum”. Further, the “entry to the infected cell” value in data set [2] is “entered the infected cells”.
As for `O=c1[nH]c(=O)n([C@@H]2C[C@@H](O)[C@H](COP(=O)(O)O[C@@H]3C[C@@H](n4cc(F)c(=O)[nH]c4=O)O[C@H]3CO)O2)cc1F` [L-109, 3'-O-(β-L-5-fluoro-2'-deoxyuridinyl)-β-L-5-fluoro-2'-deoxyuridine], in data set [1], the “In vitro activity against P. falciparum, in words” value was “did not exhibit any activity” and the “toxicity against P. falciparum, in words” value is reported as “not toxic”. Further, the IC50 in data set [1] (setting [6]) is greater than 200 µM. In data set [2], the “entry to the infected cell” value is “could not enter the infected cell”.
As for `O=c1[nH]c(=O)n([C@@H]2C[C@@H](OP(=O)(O)OC[C@H]3O[C@@H](n4cc(F)c(=O)[nH]c4=O)C[C@@H]3O)[C@H](CO)O2)cc1F` [L-110, 3'-O-(β-D-5-fluoro-2'-deoxyuridinyl)-β-L-5-fluoro-2'-deoxyuridine], the “activity ranking in words, strain D6” value in data set [3] is recorded as “most active”. In data set [5], the “activity ranking in words, strain W2” value is “most active”. The IC50 in data set [1] (setting [6]), in data set [1] (setting [7]) and in data set [1] (setting [10]) was 20 µM each time.
On to `Nc1ccn([C@H]2C[C@@H](OP(=O)(O)OC[C@H]3O[C@@H](n4cc(F)c(=O)[nH]c4=O)C[C@@H]3O)[C@H](CO)O2)c(=O)n1` [L-111, 3'-O-(β-D-5-fluoro-2'-deoxyuridinyl)-α-L-2'-deoxycytidine], for which the “In vitro activity against P. falciparum, in words” value in data set [1] was “most active; also recorded: no obvious difference in the activity”. For the same molecule, the IC50 in data set [1] (setting [6]), in data set [1] (setting [7]) and in data set [1] (setting [9]) was 38 µM in each case. The “toxicity against P. falciparum, in words” value in data set [1] was “toxic against P. falciparum”. Besides, the “entry to the infected cell” value in data set [2] is given as “entered the infected cells”.
In the case of `O=c1ccn([C@@H]2C[C@@H](OP(=O)(O)OC[C@H]3O[C@@H](n4cc(F)c(=O)[nH]c4=O)C[C@@H]3O)[C@H](CO)O2)c(=O)[nH]1` [L-117], the “activity ranking in words, strain D6” value in data set [3] is on record as “most active”. Moreover, the “activity ranking in words, strain W2” value in data set [5] is recorded as “most active”. The IC50 in data set [1] (setting [6]) and in data set [1] (setting [8]) was 35 µM in each case. Also, the “toxicity against P. falciparum, in words” value in data set [1] is “toxic against P. falciparum”. For the same molecule, the “entry to the infected cell” value in data set [2] is “entered the infected cells”.
As to `Nc1ncnc2c1ncn2[C@@H]1C[C@@H](OP(=O)(O)OC[C@H]2O[C@@H](n3cc(F)c(=O)[nH]c3=O)C[C@@H]2O)[C@H](CO)O1` [L-138, β-L-dA, β-D-FUdR], the “activity ranking in words, strain D6” value in data set [3] is given as “most active”. Also, in data set [4], the “metabolism by the infected cells” value is recorded as “metabolized by the infected cells”. Besides, in data set [5], the “activity ranking in words, strain W2” value is “most active”. Further, the “In vitro activity against P. falciparum, in words” value in data set [1] is on record as “most active”. The IC50 in data set [1] (setting [6]) turned out to be 5 µM; in data set [1] (setting [7]), 5 µM; in data set [1] (setting [10]) it was 5 µM; in data set [1] (setting [8]) it was 5 µM; in data set [1] (Table 4, Phosphorothioate "bridge" S=P--O, read-out: IC50), 100 µM. In data set [1], the “toxicity against P. falciparum, in words” value is recorded as “toxic against P. falciparum”. Further, the “entry to the infected cell” value in data set [2] is reported as “entered the infected cells”.
